According to patent US11319285B2, “N-acylated methionine sulfoxides as food flavouring compounds” (Givaudan S.A., priority 2015, dated 2022):

How the values were obtained:
[1] = Expert taster comparison in a cheese onion crisp; conditions: 10 ppb in crisp with proprietary cheese onion powder flavoring @ 6%
Method: (§1) Samples were evaluated by expert tasters. Tasters were asked to describe the samples focusing on authentic taste, mouthfeel, fullness, salty-ness, salivation, umami, sweetness, juiciness, richness, long lastingness and fattiness
Comparison in a Cheese Onion Crisp
Base is a crisp with proprietary cheese onion powder flavoring @ 6%

[2] = Expert taster comparison in Campbell's French onion soup; conditions: 10 ppb in Campbell's French onion soup
Method: as §1
Base is Campbell's® French onion soup

[3] = Expert taster comparison in UNOX 'Franse uiensoep' onion soup; conditions: 10 ppb in UNOX 'Franse uiensoep'
Method: as §1
Base is UNOX ‘Franse uiensoep’

[4] = Expert taster comparison in a cheese sauce; conditions: 0.5 ppm in Maggie Saus Base with 0.05 g ethanol
Method: Samples were evaluated by expert tasters. Tasters were asked to describe the samples focusing on authentic taste, mouthfeel, fullness, salty-ness, salivation, umami, sweetness, juiciness, richness, long lastingness and fattiness.
Comparison in a Cheese Sauce
Base is a Maggie Saus Base with 0.05 g ethanol

Compound | taste description versus base [1] | taste description versus base [2] | taste description versus base [3] | taste description versus base [4]
CCCCCCCC/C=C\CCCCCCCC(=O)N[C@@H](CC[S+](C)[O-])C(=O)O (stereo partly drawn) [Met-SO C18:1, (2S)-4-(methylsulfinyl)-2-oleamidobutanoic acid] | salt/taste level enhanced; onion character more fried | slightly stronger in salt; onion character slightly enhanced | slightly stronger in salt; onion character increased | –
CCCCCCCC/C=C\CCCCCCCC(=O)N[C@H](C[S+](C)[O-])C(=O)O (stereo partly drawn) [(2S)-3-(methylsulfinyl)-2-oleamidopropanoic acid] | – | – | – | salt/umami/fullness/cheesiness level enhanced
